ChEMBL document CHEMBL6074649, “An insight into recent developments in imidazole based heterocyclic compounds as anticancer agents: Synthesis, SARs, and mechanism of actions” (Eur J Med Chem, 2024)
≈ marks a conversion by molar mass, not a printed value.

What was measured:
U-251 = assay: Antiproliferative activity against human U-251 cells assessed as reduction in cell viability incubated for 48 hrs by CCK-8 assay; type: functional, cell-based; settings: U-251, 48 h
A549 [1] = assay: Antiproliferative activity against human A549 cells assessed as reduction in cell viability incubated for 48 hrs by CCK-8 assay; type: functional, cell-based; settings: A549, 48 h
HepG2 [2] = assay: Antiproliferative activity against human HepG2 cells assessed as reduction in cell viability incubated for 48 hrs by CCK-8 assay; type: functional, cell-based; settings: HepG2, 48 h
Leukemia cell = assay: Growth inhibition of human Leukemia cell; type: functional
[3] = Anticancer activity against HEK293 cells assessed as reduction in cell viability incubated for 48 hrs by MTT assay; type: toxicity, cell-based; settings: human
HeLa [4] = assay: Anticancer activity against human HeLa cells assessed as reduction in cell viability incubated for 48 hrs by MTT assay; type: functional, cell-based
A549 [5] = assay: Anticancer activity against human A549 cells assessed as reduction in cell viability incubated for 48 hrs by MTT assay; type: functional, cell-based; settings: A549, 48 h
IMR-32 = assay: Anticancer activity against human IMR-32 cells assessed as reduction in cell viability incubated for 48 hrs by MTT assay; type: functional, cell-based; settings: IMR-32, 48 h
K562 = assay: Antiproliferative activity against human K562 cells assessed as reduction in cell growth incubated for 48 hrs by MTT assay; type: functional, cell-based; settings: K562, 48 h
HeLa [6] = assay: Antiproliferative activity against human HeLa cells assessed as reduction in cell growth incubated for 48 hrs by MTT assay; type: functional, cell-based
MDA-MB-231 = assay: Antiproliferative activity against human MDA-MB-231 cells assessed as reduction in cell growth by MTT assay; type: functional, cell-based
L02 = assay: Antiproliferative activity against human LO2 cells assessed as reduction in cell growth by MTT assay; type: functional, cell-based
[7] = Antiproliferative activity against human HepG2 cells assessed as reduction in cell growth by MTT assay; type: toxicity, cell-based
[8] = Antiproliferative activity against human MCF-10A cells assessed as reduction in cell growth by MTT assay; type: toxicity, cell-based
A549 [9] = assay: Cytotoxicity against human A549 cells assessed as reduction in cell viability by MTT assay; type: functional, cell-based
COLO 205 = assay: Cytotoxicity against human COLO 205 cells assessed as reduction in cell viability by MTT assay; type: functional, cell-based
MCF7 [10] = assay: Cytotoxicity against human MCF7 cells assessed as reduction in cell viability by MTT assay; type: functional, cell-based
A2780 = assay: Cytotoxicity against human A2780 cells assessed as reduction in cell viability by MTT assay; type: functional, cell-based
HepG2 [11] = assay: Cytotoxicity against human HepG2 cells assessed as reduction in cell growth incubated for 24 hrs by SRB assay; type: functional, cell-based; settings: HepG2, 24 h
MCF7 [12] = assay: Cytotoxicity against human MCF7 cells assessed as reduction in cell growth incubated for 24 hrs by SRB assay; type: functional, cell-based; settings: MCF7, 24 h
[13] = Growth inhibition of human Non-small cell lung cancer cell line; type: functional
CNS carcinoma cell = assay: Growth inhibition of human CNS carcinoma cell; type: functional
[14] = Growth inhibition of human Colon cancer cell line; type: functional
[15] = Growth inhibition of human Melanoma cell; type: functional
NCI-H1299 = assay: Anticancer activity against human NCI-H1299 cells by MTT assay; type: functional, cell-based
[16] = Anticancer activity against human UKF-NB-3 cells by MTT assay; type: functional, cell-based
A549 [17] = assay: Anticancer activity against human A549 cells by MTT assay; type: functional, cell-based
MCF7 [18] = assay: Cytotoxicity against human MCF7 cells assessed as reduction in cell growth measured for 24 hrs by MTT assay; type: functional, cell-based; settings: MCF7, 24 h
HepG2 [19] = assay: Cytotoxicity against human HepG2 cells assessed as reduction in cell growth incubated for 24 hrs by MTT assay; type: functional, cell-based; settings: HepG2, 24 h
Caco-2 = assay: Cytotoxicity against human Caco-2 cells assessed as reduction in cell growth measured for 24 hrs by MTT assay; type: functional, cell-based; settings: Caco-2, 24 h
MCF7 [20] = assay: Anticancer activity against human MCF7 cells at 1.9 uM relative to control; type: functional
MCF7 [21] = assay: Anticancer activity against human MCF7 cells at 15.6 uM relative to control; type: functional
MCF7 [22] = assay: Anticancer activity against human MCF7 cells at 62.5 uM relative to control; type: functional
MCF7 [23] = assay: Anticancer activity against human MCF7 cells at 1.5 uM relative to control; type: functional
MCF7 [24] = assay: Anticancer activity against human MCF7 cells at 3.9 uM relative to control; type: functional
MCF7 [25] = assay: Anticancer activity against human MCF7 cells at 500 uM relative to control; type: functional
MCF7 [26] = assay: Anticancer activity against human MCF7 cells at 125 uM relative to control; type: functional
MCF7 [27] = assay: Anticancer activity against human MCF7 cells at 31.25 uM relative to control; type: functional
MCF7 [28] = assay: Anticancer activity against human MCF7 cells at 7.8 uM relative to control; type: functional

For `CN(C)c1ccc(/C=C/c2ncc([N+](=O)[O-])n2CCOC(=O)c2nccc3ccccc23)cc1`, the IC50 (U-251) was 0.14 µM, the IC50 (A549 [1]) was 0.43 µM and the IC50 (HepG2 [2]) was 0.17 µM.

Work on `COc1ccc(Nn2c(SCC(=O)Nc3nc(-c4ccc(Cl)cc4)cs3)nc(C)c2C)cc1` yielded a GI50 (Leukemia cell) of 4.15 µM.

In the case of `O=c1c(-c2nc(-c3ccc(Br)cc3)c(-c3ccc(Br)cc3)[nH]2)coc2ccccc12`, the IC50 at 48 h [3] is reported as 82.3 µM, the IC50 (HeLa [4]) is reported as 24.7 µM and the IC50 (A549 [5]) is reported as 27.1 µM. It also gave an IC50 (IMR-32) of 29.4 µM.

`COc1cc([C@@H]2c3cc4c(cc3[C@@H](n3ccnc3)[C@H]3COC(=O)[C@H]23)OCO4)cc(OC)c1OC` showed an IC50 (K562) of 2.88 µM and an IC50 (HeLa [6]) of 5.22 µM.

For `Cc1nc(SCC(=O)Nc2nc(-c3ccc(Cl)cc3)cs2)n(Nc2ccccc2)c1C`, the GI50 (Leukemia cell) was 3.08 µM.

With `Brc1ccc(-c2nc(-c3ccccc3)c(-c3ccccc3)[nH]2)cn1` the IC50 (MDA-MB-231) was 17.8 µM, the IC50 (L02) was 22 µM and the IC50 [7] was 26.7 µM. For the same molecule, the IC50 [8] was 36.8 µM.

Molecule `O=[N+]([O-])c1cccc(S(=O)(=O)n2ccnc2-c2ccon2)c1` has an IC50 (A549 [9]) of 1.14 µM, an IC50 (COLO 205) of 1.9 µM and an IC50 (MCF7 [10]) of 1.03 µM. It also gave an IC50 (A2780) of 0.63 µM.

In the case of `c1ccc(-c2nc(-c3c[nH]c4ccccc34)[nH]c2-c2ccccc2)cc1`, the IC50 (MDA-MB-231) is reported as 31.4 µM, the IC50 (L02) is reported as 34.7 µM and the IC50 [7] is reported as 29.3 µM. For the same molecule, the IC50 [8] was 31.8 µM.

With `CC[C@]1(O)C[C@@H]2CN(CCc3c([nH]c4ccccc34)[C@@](C(=O)OC)(c3cc4c(cc3OC)N(C)[C@H]3[C@@](O)(C(=O)OC)[C@H](OC(C)=O)[C@]5(CC)C=CCN6CC[C@]43[C@@H]65)C2)C1.O=S(=O)(O)O` [VINBLASTINE SULFATE] the IC50 (HepG2 [11]) was 4.6 µg/mL and the IC50 (MCF7 [12]) was 5.7 µg/mL.

Work on `COc1cc([C@@H]2c3cc4c(cc3[C@H](n3cnc(C)c3)[C@H]3COC(=O)[C@H]23)OCO4)cc(OC)c1OC` yielded an IC50 (K562) of 8.8 µM and an IC50 (HeLa [6]) of 4.48 µM.

`Oc1ccc(-n2cnc(-c3cc(O)cc(O)c3)c2)cc1` gave a GI50 [13] of 28.8 µM, a GI50 (Leukemia cell) of 4.1 µM and a GI50 (CNS carcinoma cell) of 11.5 µM. For the same molecule, the GI50 [14] was 11.5 µM and the GI50 [15] was 12.9 µM.

With `COc1cc([C@@H]2c3cc4c(cc3[C@@H](n3cnc([N+](=O)[O-])c3)[C@H]3COC(=O)[C@H]23)OCO4)cc(OC)c1O` the IC50 (K562) was 7.43 µM.

Work on `O=C(OCCn1c([N+](=O)[O-])cnc1/C=C/c1ccc2ccccc2c1)c1nccc2ccccc12` yielded an IC50 (U-251) of 0.1 µM, an IC50 (A549 [1]) of 0.32 µM and an IC50 (HepG2 [2]) of 0.11 µM.

With `O=C(Cn1cnc(-c2ccccc2)c1-c1ccccc1)NCCOC(=O)C12CC3CC(CC(C3)C1)C2` the IC50 (NCI-H1299) was > 100 µg/mL, the IC50 [16] was 8.53 µg/mL (≈ 17.6 µM) and the IC50 (A549 [17]) was 43.2 µg/mL (≈ 89.3 µM).

Molecule `c1coc(-c2nc(-c3ccc(OCCCOc4ccc(-c5nc(-c6ccco6)c(-c6ccco6)[nH]5)cc4)cc3)[nH]c2-c2ccoc2)c1` has an IC50 (MCF7 [18]) of 59.2 µM, an IC50 (HepG2 [19]) of 8.14 µM and an IC50 (Caco-2) of 327 µM.

`c1ccc(-c2nc(-c3ccc(OCc4cc(COc5ccc(-c6nc(-c7ccccc7)c(-c7ccccc7)[nH]6)cc5)c(COc5ccc(-c6nc(-c7ccccc7)c(-c7ccccc7)[nH]6)cc5)cc4COc4ccc(-c5nc(-c6ccccc6)c(-c6ccccc6)[nH]5)cc4)cc3)[nH]c2-c2ccccc2)cc1` gave an IC50 (MCF7 [18]) of 12.6 µM, an IC50 (HepG2 [19]) of 19.1 µM and an IC50 (Caco-2) of 34.8 µM.

`Fc1ccc(Cn2c(-c3ccc(Br)cc3)nc(-c3ccccc3)c2-c2ccccc2)cc1` gave an inhibition at 1.9 µM (MCF7 [20]) of 75%, an inhibition at 15.6 µM (MCF7 [21]) of 36% and an inhibition at 62.5 µM (MCF7 [22]) of 24%. It also gave an inhibition at 1.5 µM (MCF7 [23]) of 84%, an inhibition at 3.9 µM (MCF7 [24]) of 69% and an inhibition at 500 µM (MCF7 [25]) of 5%. For the same molecule, the inhibition at 125 µM (MCF7 [26]) was 20%, the inhibition at 31.25 µM (MCF7 [27]) was 30% and the inhibition at 7.8 µM (MCF7 [28]) was 63%.
